# Test results taken from PMC5459446, “A phase I study of single-agent perifosine for recurrent or refractory pediatric CNS and solid tumors” (PLoS ONE, 2017).
# Several values for one entry are separate records, joined by “and”; a condition that tells them apart may be missing. Identical values can stand only once. Counter-ions that a name gives are not always drawn.
# Columns and labels:
# [1] = system: pediatric patients with recurrent or refractory CNS and solid tumors; test: Phase I dose-escalation toxicity assessment (Common Toxicity Criteria v3.0, DLT, MTD); format: in vivo
# Experimental: This was a standard 3+3 phase I dose escalation study (NCT00776867) investigating 5 dose levels. Perifosine was only available as 50-mg tablets, complicating the phase I dose escalation scheme. A loading dose was administered on day 1 and subsequent maintenance doses were administered every 1 to 4 days, depending on dose level and BSA, with the goal of achieving dose levels of 25, 50, 75, 100, and 125 mg/m^2/day (Tables 1–5). This dosing scheme, incorporating drug administration as infrequently as every 4 days, was made possible by perifosine’s long half-life. Treatment was continued until disease progression, intolerable toxicity, DLT, or death was encountered. Subjects experiencing DLT but with evidence of clinical benefit at dose level 1, 2, or 3 were eligible to remain on study with a dose level reduction. […]
# Toxicity was assessed according to the Common Toxicity Criteria (version 3.0) of the National Cancer Institute, National Institutes of Health. DLT was defined as (1) any non-hematological toxicity grade ≥ 3 [except for grade 3 nausea, vomiting, and diarrhea that could be controlled within 24 hours with supportive care measures]; (2) grade 4 neutropenia on 2 consecutive blood counts drawn at least 72 hours apart; (3) grade 4 febrile neutropenia [ANC < 1000/μL and fever ≥ 38.5°C] or grade ≥ 3 documented infection with ANC < 1000/μL, or; (4) a platelet count < 25,000/μL. Grade ≥ 3 decrease in hemoglobin that could be corrected to at least 8 g/dl (grade 2) by transfusion of red blood cells, grade ≥ 3 leukopenia in the absence of dose-limiting neutropenia, and grade ≥ 3 lymphopenia were not considered DLTs.
# The DLT assessment period was the first 28-day cycle. If therapy was discontinued during the first cycle for reasons other than toxicity, an additional subject could be enrolled at that dose level to ensure adequate evaluation of toxicity. No intra-patient dose escalation was permitted.
# [2] = system: mouse brainstem glioma model; set-up: method as in PMID 25712742; conditions: doses demonstrated to be effective in cell culture; cited from earlier work
# [3] = Steady state plasma pharmacokinetics (LC/electrospray MS); format: in vivo, human
# Experimental: Samples for pharmacokinetic analysis were obtained at baseline and during weeks 2 through 4 of cycle 1. At each time point, heparinized blood was collected into a plastic vacutainer to minimize adhesion of perifosine. Plasma was separated by centrifugation and stored in polypropylene cryovials at -70°C until assayed. Perifosine in plasma was measured by a validated reversed phase liquid chromatography/electrospray mass spectrometry method as developed and validated by Woo et al..
# [4] = set-up: method as in PMID 25740692; conditions: oral, adult non-tumor bearing rhesus monkeys, cerebrospinal fluid; cited from earlier work
# [5] = 23 patients, all dose levels, at least possibly related
# [6] = 23 patients, all dose levels, at least possibly related, listed as Perifosine
compound,measurement,setting,value
"CCCCCCCCCCCCCCCCCCOP(=O)([O-])OC1CC[N+](C)(C)CC1 [perifosine, 1,1-Dimethyl-4-[[(octadecyloxy)hydroxyphosphinyl]oxy]-piperidinium inner salt]",MTD,"[1]; 5 dose levels, 25 to 125 mg/m2/day",not defined
same,"ALT, Any Grade, %",[1]; [5],39.13%
same,"ALT, Any Grade, No.",[1]; [5],9
same,"ALT, Grade 3 or 4, %",[1]; [5],0.00%
same,"ALT, Grade 3 or 4, No.",[1]; [5],0
same,"AST, Any Grade, %",[1]; [5],26.09%
same,"AST, Any Grade, No.",[1]; [5],6
same,"AST, Grade 3 or 4, %",[1]; [5],0.00%
same,"Decreased hemoglobin, Grade 3 or 4, %",[1]; [5],0.00%
same,"Decreased hemoglobin, Grade 3 or 4, No.",[1]; [5],0
same,"Decreased leukocytes, Any Grade, %",[1]; [5],47.83%
same,"Decreased leukocytes, Any Grade, No.",[1]; [5],11
same,"Decreased leukocytes, Grade 3 or 4, %",[1]; [5],0.00%
same,"Decreased leukocytes, Grade 3 or 4, No.",[1]; [5],0
same,"Decreased neutrophils (neutropenia), Grade 3 or 4, %",[1]; [5],8.7%
same,"Decreased neutrophils, Any Grade, %",[1]; [5],26.09%
same,"Decreased neutrophils, Any Grade, No.",[1]; [5],6
same,"Decreased neutrophils, Grade 3 or 4, No.",[1]; [5],2
same,"Decreased platelets, Any Grade, %",[1]; [5],21.74%
same,"Decreased platelets, Any Grade, No.",[1]; [5],5
same,"Decreased platelets, Grade 3 or 4, %",[1]; [5],0.00%
same,"Decreased platelets, Grade 3 or 4, No.",[1]; [5],0
same,"Diarrhea, Any Grade, %",[1]; [5],43.48%
same,"Diarrhea, Any Grade, No.",[1]; [5],10
same,"Diarrhea, Grade 3 or 4, %",[1]; [5],0.00%
same,"Diarrhea, Grade 3 or 4, No.",[1]; [5],0
same,"Fatigue, Any Grade, %",[1]; [5],65.22%
same,"Fatigue, Any Grade, No.",[1]; [5],15
same,"Fatigue, Grade 3 or 4, %",[1]; [5],4.35%
same,"Fatigue, Grade 3 or 4, No.",[1]; [5],1
same,"Fever, Any Grade, %",[1]; [5],21.74%
same,"Fever, Any Grade, No.",[1]; [5],5
same,"Fever, Grade 3 or 4, %",[1]; [5],4.35%
same,"Fever, Grade 3 or 4, No.",[1]; [5],1
same,"Flatulence, Any Grade, %",[1]; [5],13.04%
same,"Flatulence, Any Grade, No.",[1]; [5],3
same,"Flatulence, Grade 3 or 4, %",[1]; [5],0.00%
same,"Flatulence, Grade 3 or 4, No.",[1]; [5],0
same,"Hyperglycemia, Any Grade, %",[1]; [5],60.87%
same,"Hyperglycemia, Any Grade, No.",[1]; [5],14
same,"Hyperglycemia, Grade 3 or 4, %",[1]; [5],4.35%
same,"Hyperglycemia, Grade 3 or 4, No.",[1]; [5],1
same,"Hyperuricemia, Any Grade, %",[1]; [5],4.35%
same,"Hyperuricemia, Any Grade, No.",[1]; [5],1
same,"Hyperuricemia, Grade 3 or 4, %",[1]; [5],4.35%
same,"Hyperuricemia, Grade 3 or 4, No.",[1]; [5],1
same,"Hypocalcemia, Any Grade, %",[1]; [5],21.74%
same,"Hypocalcemia, Any Grade, No.",[1]; [5],5
same,"Hypocalcemia, Grade 3 or 4, %",[1]; [5],0.00%
same,"Hypocalcemia, Grade 3 or 4, No.",[1]; [5],0
same,"Hypokalemia, Any Grade, %",[1]; [5],21.74%
same,"Hypokalemia, Any Grade, No.",[1]; [5],5
same,"Hypokalemia, Grade 3 or 4, %",[1]; [5],0.00%
same,"Hypokalemia, Grade 3 or 4, No.",[1]; [5],0
same,"Hypomagnesemia, Any Grade, %",[1]; [5],13.04%
same,"Hypomagnesemia, Any Grade, No.",[1]; [5],3
same,"Hypomagnesemia, Grade 3 or 4, %",[1]; [5],0.00%
same,"Hypomagnesemia, Grade 3 or 4, No.",[1]; [5],0
same,"Hyponatremia, Any Grade, %",[1]; [5],21.74%
same,"Hyponatremia, Any Grade, No.",[1]; [5],5
same,"Hyponatremia, Grade 3 or 4, %",[1]; [5],0.00%
same,"Hyponatremia, Grade 3 or 4, No.",[1]; [5],0
same,"Hypophosphatemia, Any Grade, %",[1]; [5],13.04%
same,"Hypophosphatemia, Any Grade, No.",[1]; [5],3
same,"Hypophosphatemia, Grade 3 or 4, %",[1]; [5],0.00%
same,"Hypophosphatemia, Grade 3 or 4, No.",[1]; [5],0
same,"Infection URI, Any Grade, %",[1]; [5],17.39%
same,"Infection URI, Any Grade, No.",[1]; [5],4
same,"Infection URI, Grade 3 or 4, %",[1]; [5],0.00%
same,"Infection URI, Grade 3 or 4, No.",[1]; [5],0
same,"Infection—catheter related, Any Grade, %",[1]; [5],4.35%
same,"Infection—catheter related, Any Grade, No.",[1]; [5],1
same,"Infection—catheter related, Grade 3 or 4, %",[1]; [5],4.35%
same,"Infection—catheter related, Grade 3 or 4, No.",[1]; [5],1
same,"Lymphopenia, Any Grade, %",[1]; [5],17.39%
same,"Lymphopenia, Any Grade, No.",[1]; [5],4
same,"Lymphopenia, Grade 3 or 4, %",[1]; [5],0.00%
same,"Lymphopenia, Grade 3 or 4, No.",[1]; [5],0
same,"Nausea, Any Grade, %",[1]; [5],65.22%
same,"Nausea, Any Grade, No.",[1]; [5],15
same,"Nausea, Grade 3 or 4, %",[1]; [5],0.00%
same,"Nausea, Grade 3 or 4, No.",[1]; [5],0
same,"Pain—abdomen NOS, Any Grade, %",[1]; [5],21.74%
same,"Pain—abdomen NOS, Any Grade, No.",[1]; [5],5
same,"Pain—abdomen NOS, Grade 3 or 4, %",[1]; [5],0.00%
same,"Pain—abdomen NOS, Grade 3 or 4, No.",[1]; [5],0
same,"Pain—stomach, Any Grade, %",[1]; [5],13.04%
same,"Pain—stomach, Any Grade, No.",[1]; [5],3
same,"Pain—stomach, Grade 3 or 4, %",[1]; [5],0.00%
same,"Pain—stomach, Grade 3 or 4, No.",[1]; [5],0
same,"Vomiting, Any Grade, %",[1]; [5],56.52%
same,"Vomiting, Any Grade, No.",[1]; [5],13
same,"Vomiting, Grade 3 or 4, %",[1]; [5],0.00%
same,"Vomiting, Grade 3 or 4, No.",[1]; [5],0
same,"Decreased leukocytes, Any Grade, %",[1]; [6],47.8%
same,"Fatigue, Any Grade, %",[1]; [6],65.2%
same,"Hyperglycemia, Any Grade, %",[1]; [6],60.9%
same,"Nausea, Any Grade, %",[1]; [6],65.2%
same,"Vomiting, Any Grade, %",[1]; [6],56.5%
same,Number of DLTs,"[1]; grade 4 hyperuricemia at dose level 4, 23 patients, 5 dose levels",one
same,"AST, Grade 3 or 4, No.","[1]; human, in vivo",0
same,"Anorexia, Any Grade, %","[1]; human, in vivo",30.43%
same,"Anorexia, Any Grade, No.","[1]; human, in vivo",7
same,"Anorexia, Grade 3 or 4, %","[1]; human, in vivo",0.00%
same,"Anorexia, Grade 3 or 4, No.","[1]; human, in vivo",0
same,"Constipation, Any Grade, %","[1]; human, in vivo",13.04%
same,"Constipation, Any Grade, No.","[1]; human, in vivo",3
same,"Constipation, Grade 3 or 4, %","[1]; human, in vivo",0.00%
same,"Constipation, Grade 3 or 4, No.","[1]; human, in vivo",0
same,"Decreased hemoglobin, Any Grade, %","[1]; human, in vivo",43.48%
same,"Decreased hemoglobin, Any Grade, No.","[1]; human, in vivo",10
same,Acute toxicity after convection enhanced delivery,[2],no serious acute toxicities
same,Average Plasma Level (standard deviation),"[3]; dose level 1, target 25 mg/m^2/day, patients 1,2,3, steady state",6.8 (1.6) μg/mL
same,Average Plasma Level (standard deviation),"[3]; dose level 2, target 50 mg/m^2/day, patients 4,5,6, steady state",14.4 (2.5) μg/mL and 39.0 (6.8) μM
same,Average Plasma Level (standard deviation),"[3]; dose level 3, target 75 mg/m^2/day, patients 7-11, steady state",11.5 (3.1) μg/mL and 31.1 (8.5) μM
same,Average Plasma Level (standard deviation),"[3]; dose level 4, target 100 mg/m^2/day, patients 12-17, steady state",12.7 (6.1) μg/mL and 34.4 (16.5) μM
same,Average Plasma Level (standard deviation),"[3]; dose level 5, target 125 mg/m^2/day, patients 18-22, steady state",12.1 (3.5) μg/mL and 32.8 (9.5) μM
same,Steady state plasma levels,[3]; observed in most patients,above 10 μM
same,Maintenance dose at which dose exposure plateau is reached,"[3]; pediatric patients, steady state plasma levels",50 mg/m^2/day
same,CNS penetration,[4],limited
